Experiments:
[1] = LNP size and size distribution by dynamic light scattering (WISC HA modFlu mRNA LNPs); format: physicochemical; conditions: DLS; for Size (nm): LNP of the ionizable lipid:cholesterol:DSPC:PEG-Lipid about 46.3:42.7:9.4:1.6 with WISC HA modFlu mRNA; for PDI: LNP with WISC HA modFlu mRNA
Procedure: (§1) Lipid nanoparticles were prepared and tested according to the general procedures described in U.S. Pat. No. 9,737,619 (PCT Pub. No. WO2015/199952) and U.S. Pat. No. 10,166,298 (PCT Pub. No. WO 2017/075531) and PCT Pub. No. WO2020/146805. The novel ionizable lipids of the invention, cholesterol, DSPC and PEG-Lipid were solubilized in Ethanol at a molar ratio of about 46.3:42.7:9.4:1.6. Lipid nanoparticles (LNP) were prepared at a total lipid to mRNA ratio of about 23:1. In short, the mRNA (WISC HA modFlu) was diluted in buffer. Syringe pumps were used to mix the lipid solution with the mRNA solution. The ethanol was removed, and external buffer replaced with another buffer (e.g., Tris) by dialysis. Finally, the lipid nanoparticle size and size distribution were determined by dynamic light scattering using an Unchained Labs Stunner (Unchained Labs, USA). RNA encapsulation efficiency was determined using the Quant-iT RiboGreen RNA assay (Life Technologies, USA). Briefly, LNPs were incubated with RiboGreen dye (200-fold dilution per manufactures' instruction) in the presence and absence of 1% Triton-X 100 and fluorescence intensities (Excitation/Emission: 485/528 […]) were measured for unencapsulated RNA and total RNA after release from LNPs by Triton-X 100.

[2] = RNA encapsulation efficiency, Quant-iT RiboGreen RNA assay (WISC HA modFlu mRNA LNPs); format: physicochemical; conditions: LNP with WISC HA modFlu mRNA
Procedure: as §1

Hek293T cells = experiment: In vitro expression of encoded gene of interest after LNP dosing, high content imaging (WISC HA modFlu mRNA); format: cell-based; conditions: LNP with WISC HA modFlu mRNA, overnight incubation
Procedure: as §1
(§2) Plated Hek293T or Hela cells were dosed with lipid nanoparticles in a total volume of 40 μl cell culture media and incubated overnight at 37° C. and 5% CO2. After fixation with 4% paraformaldehyde in PBS cells were washed in PBS containing 0.3% Triton-X100 and 3% BSA (w/v), followed by nuclear staining with Hoechst and antibody staining for the encoded gene of interest. Nuclear count and identification of cells stained positive for gene of interest was done on an Opera Phenix high content imager (PerkinElmer, USA).

Hela cells [3] = experiment: as above; format: cell-based; conditions: LNP with WISC HA modFlu mRNA, overnight incubation
Procedure: as §1, §2

[4] = LNP size and polydispersity index by Malvern Zetasizer dynamic light scattering (CA HA modFlu mRNA LNPs); format: physicochemical; conditions: DLS; for Size (nm): LNP of the ionizable lipid:cholesterol:DSPC:ALC-0159 about 46.3:42.7:9.4:1.6, N:P about 6:1, CA HA modFlu mRNA; for PDI: LNP with CA HA modFlu mRNA
Procedure, shortened: (§3)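 LNPs of ionizable lipid:cholesterol:DSPC:ALC-0159 (molar ratio about 46.3:42.7:9.4:1.6) formed by syringe-pump mixing of ethanolic lipids with mRNA at N:P about 6:1, then dialysed into buffer (e.g., Tris) and filtered. Size and PDI measured by DLS; total RNA and encapsulation efficiency by RiboGreen.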

[5] = Encapsulation efficiency, RiboGreen RNA quantitation assay (CA HA modFlu mRNA LNPs); format: physicochemical; conditions: LNP with CA HA modFlu mRNA
Procedure, shortened: as §3

HEK293F cells = experiment: In vitro expression of novel ionizable lipid nanoparticles, high content imaging (CA HA modFlu mRNA); format: cell-based; conditions: LNP with CA HA modFlu mRNA
Procedure, shortened: (§4)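 Lipid nanoparticles of ionizable lipid, cholesterol, DSPC and ALC-0159 (about 46.3:42.7:9.4:1.6 molar), N:P about 6:1, carrying mRNA, dosed onto cells overnight at 37° C., 5% CO2. Cells fixed and stained with Hoechst plus antibody to encoded protein; nuclei and antigen-positive cells counted by high-content imaging.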

Hela cells [6] = experiment: as above; format: cell-based; conditions: LNP with CA HA modFlu mRNA
Procedure, shortened: as §4

Row | Structure (SMILES) | Size (nm) [1] | PDI [1] | EE % [2] | EC50 Hek293T (ng/well) (Hek293T cells) | EC50 Hela (ng/well) (Hela cells [3]) | Size (nm) [4] | PDI [4] | EE % [5] | EC50 Hek293F (ng/well) (HEK293F cells) | EC50 Hela (ng/well) (Hela cells [6])
1 | CCCCCCCC(CCCCCCC)C(=O)O[C@@H]1CC2(CCN(CCCCO)CC2)C[C@H]1OC(=O)C(CCCCCCC)CCCCCCC (racemic) [Example 51, rac-(2R,3R)-8-(4-Hydroxybutyl)-8-azaspiro[4.5]decane-2,3-diyl bis(2-heptylnonanoate)] | 72 nm | 0.03 | 96% | 5.3 ng/well | 10.7 ng/well | 58 nm | 0.030 | 99% | 0.27 ng/well | 0.64 ng/well
2 | CCCCCCCC(CCCCCCC)C(=O)OCC1(COC(=O)C(CCCCCCC)CCCCCCC)CCC2(CCN(CCCCO)CC2)CC1 [Example 1, (3-(4-hydroxybutyl)-3-azaspiro[5.5]undecane-9,9-diyl)bis(methylene) bis(2-heptylnonanoate)] | 76 nm | 0.04 | 99% | 13.9 ng/well | 18.3 ng/well | 78 nm | 0.050 | 100% | 1.7 ng/well | 1.2 ng/well
3 | CCCCCCCC(CCCCCCC)C(=O)OCC(COC(=O)C(CCCCCCC)CCCCCCC)C1CCC2(CC1)CCN(CCCCO)CC2 [Example 2, 2-(3-(4-hydroxybutyl)-3-azaspiro[5.5]undecan-9-yl)propane-1,3-diyl bis(2-heptylnonanoate)] | 93 nm | 0.06 | 99% | 14.5 ng/well | 28.1 ng/well | 92 nm | 0.040 | 100% | 2.5 ng/well | 1.6 ng/well
4 | CCCCCCCC(CCCCCCC)C(=O)OCC(COC(=O)C(CCCCCCC)CCCCCCC)N1CCC2(CCN(CCCCO)CC2)CC1 [Example 3, 2-(9-(4-Hydroxybutyl)-3,9-diazaspiro[5.5]undecan-3-yl)propane-1,3-diyl bis(2-heptylnonanoate)] | 152 nm | 0.07 | 99% | 11.9 ng/well | 18.4 ng/well | 90 nm | 0.040 | 100% | 2.8 ng/well | 1.7 ng/well
5 | CCCCCCCCC(CCCCCC)C(=O)OCC(COC(=O)C(CCCCCC)CCCCCCCC)N1CC2(CCN(CCCCCO)CC2)C1 (centres unmarked) [Example 49, 2-(7-(5-hydroxypentyl)-2,7-diazaspiro [3.5]nonan-2-yl)propane-1,3-diyl bis(2-hexyldecanoate)] | – | – | – | – | – | 160 nm | 0.110 | 99% | 0.41 ng/well | 1.4 ng/well
6 | CCCCCCCCC(CCCCCC)C(=O)OCC(COC(=O)C(CCCCCC)CCCCCCCC)N1CCC2(CC1)CN(CCCCO)C2 (centres unmarked) [Example 50, 2-(2-(4-hydroxybutyl)-2,7-diazaspiro[3.5]nonan-7-yl)propane-1,3-diyl bis(2-hexyldecanoate)] | – | – | – | – | – | 120 nm | 0.046 | 99% | 0.56 ng/well | 0.74 ng/well

Reference: patent US20250367129A1, “Lipid Compounds and Uses Thereof” (Pfizer Inc., priority 2022, published 2025)
